Laboratory results as given in BindingDB's records for doi:10.7270/Q2JD4V7Q (The Scripps Research Institute Molecular Screening Center, 2010).

Target: T1, NADPH oxidase 1 (Homo sapiens, UniProt Q9Y5S8)
T1 sequence (Q9Y5S8 whole entry): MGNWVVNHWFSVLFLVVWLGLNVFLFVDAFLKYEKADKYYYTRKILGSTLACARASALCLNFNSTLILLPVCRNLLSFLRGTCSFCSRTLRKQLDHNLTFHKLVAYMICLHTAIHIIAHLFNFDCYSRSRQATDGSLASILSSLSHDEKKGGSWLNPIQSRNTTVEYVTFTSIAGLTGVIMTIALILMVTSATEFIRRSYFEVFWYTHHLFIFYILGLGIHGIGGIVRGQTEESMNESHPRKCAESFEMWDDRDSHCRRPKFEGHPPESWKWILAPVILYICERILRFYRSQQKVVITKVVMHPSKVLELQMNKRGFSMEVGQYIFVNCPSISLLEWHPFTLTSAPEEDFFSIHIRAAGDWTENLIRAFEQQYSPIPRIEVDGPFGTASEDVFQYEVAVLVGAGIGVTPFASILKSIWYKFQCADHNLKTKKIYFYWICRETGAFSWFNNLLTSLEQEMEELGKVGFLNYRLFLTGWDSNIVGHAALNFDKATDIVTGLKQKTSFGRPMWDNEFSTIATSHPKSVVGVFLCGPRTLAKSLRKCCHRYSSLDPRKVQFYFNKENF
Experiment: xanthine oxidase inhibitors, late-stage follow-up, NOX1 inhibitor project, biochemical, IC50, set 2 (AID 435009)

Structure (SMILES) | IC50
CN(C)c1ccc(CN=Nc2c(Cl)cncc2Cl)cc1 | > 50 µM
Oc1c(Br)cc(CN=Nc2c(Cl)cncc2Cl)cc1Br [4-[[2-[3,5-bis(chloranyl)pyridin-4-yl]hydrazinyl]methylidene]-2,6-bis(bromanyl)cyclohexa-2,5-dien-1-one] | > 50 µM
